{"source": "patent US12533333B2", "about": "“Method of treatment of obesity” (Queen Mary University of London, priority 2016, dated 2026)", "key": {"phosphorylated CaMKII [1]": {"test_system": "phosphorylated CaMKII", "experiment": "pCaMKII activation in human colonic mucosa / proximal colon", "assay_type": "cell-based", "conditions": "100 MM (heading of Example 6), FIG. 9"}, "phosphorylated ERK [2]": {"test_system": "phosphorylated ERK", "experiment": "pERK activation in human colonic mucosa / proximal colon", "assay_type": "cell-based"}, "phosphorylated CaMKII [3]": {"test_system": "phosphorylated CaMKII", "conditions": "via GPR120, not via pERK; background; cited from earlier work"}, "[4]": {"conditions": "in vivo; cited from earlier work"}, "[5]": {"conditions": "infused into the small intestine through a nasogastric tube; cited from earlier work"}, "phosphorylated ERK [6]": {"test_system": "phosphorylated ERK", "conditions": "human colonic mucosa / enteroendocrine cells, previously shown; cited from earlier work"}}, "note": "“Also recorded” adds a separate entry of the source.", "data": [{"smiles": "CC/C=C\\C/C=C\\C/C=C\\CCCCCCCC(=O)O", "note": "[ALA, (9Z,12Z,15Z)-9,12,15-Octadecatrienoic acid]", "values": [{"measurement": "expression of cell activation marker pCamKii", "setting": "phosphorylated CaMKII [1]", "result": "potently induce expression; also recorded: activate"}, {"measurement": "expression of cell activation marker pERK", "setting": "phosphorylated ERK [2]; human colonic mucosa, 100 MM (heading of Example 6), FIG. 9", "result": "potently induce expression; also recorded: activate"}, {"measurement": "activation of pCalmodulin kinase II (pCAMKII)", "setting": "phosphorylated CaMKII [3]", "result": "activate"}]}, {"smiles": "c1ccc2c(Cc3c[nH]c4ccccc34)c[nH]c2c1", "note": "[DIM, 3,3′-diindolylmethane]", "values": [{"measurement": "activation of pERK in colonocytes", "setting": "phosphorylated ERK [2]; in combination with GPR120 agonist TUG891 and GPR84 agonist lauric acid (FIG. 8)", "result": "potently activates"}]}, {"smiles": "CCCCCCCCCCCC(=O)O", "note": "[lauric acid]", "values": [{"measurement": "plasma levels of glucagon-like peptide-1 (GLP-1)", "setting": "[4]", "result": "increasing"}, {"measurement": "plasma levels of peptide YY (PYY)", "setting": "[4]", "result": "increasing"}, {"measurement": "food intake", "setting": "[5]", "result": "reduces food intake more potently than other fatty acids"}, {"measurement": "activation of intracellular pathway as measured by phosphorylated ERK", "setting": "phosphorylated ERK [6]", "result": "activates"}]}]}
